Measured values taken from ChEMBL document CHEMBL1151464 (2008).
Converted amounts (≈) assume the structure as drawn.

Experiments:
Type in all cases: functional
[1] = test system: Acinetobacter baumannii; test: Antibacterial activity against Acinetobacter baumannii isolate 927 after 24 hrs by CLSI microdilution method
[2] = test system: Acinetobacter baumannii; test: Antibacterial activity against Acinetobacter baumannii isolate 928 after 24 hrs by CLSI microdilution method
[3] = test system: Acinetobacter baumannii; test: Antibacterial activity against Acinetobacter baumannii isolate 929 after 24 hrs by CLSI microdilution method
[4] = test system: Acinetobacter baumannii; test: Antibacterial activity against Acinetobacter baumannii isolate 930 after 24 hrs by CLSI microdilution method
[5] = test system: Acinetobacter baumannii; test: Antibacterial activity against Acinetobacter baumannii isolate 932 expressing OXA-24 and OXA-51 beta-lactamase after 24 hrs by CLSI microdilution method
[6] = test system: Acinetobacter baumannii; test: Antibacterial activity against Acinetobacter baumannii isolate 931 after 24 hrs by CLSI microdilution method
[7] = test system: Acinetobacter baumannii; test: Antibacterial activity against Acinetobacter baumannii isolate 920 after 24 hrs by CLSI microdilution method
[8] = test system: Pseudomonas aeruginosa; test: Antibacterial activity against Pseudomonas aeruginosa isolate 320 after 24 hrs by CLSI microdilution method
[9] = test system: Pseudomonas aeruginosa; test: Antibacterial activity against Pseudomonas aeruginosa isolate 327 after 24 hrs by CLSI microdilution method
[10] = test system: Pseudomonas aeruginosa; test: Antibacterial activity against Pseudomonas aeruginosa isolate 328 after 24 hrs by CLSI microdilution method
[11] = test system: Pseudomonas aeruginosa; test: Antibacterial activity against Pseudomonas aeruginosa isolate 330 after 24 hrs by CLSI microdilution method
[12] = test system: Pseudomonas aeruginosa; test: Antibacterial activity against Pseudomonas aeruginosa isolate 332 after 24 hrs by CLSI microdilution method
[13] = test system: Pseudomonas aeruginosa; test: Antibacterial activity against Pseudomonas aeruginosa isolate 337 after 24 hrs by CLSI microdilution method
[14] = test system: Pseudomonas aeruginosa; test: Antibacterial activity against Pseudomonas aeruginosa isolate 338 after 24 hrs by CLSI microdilution method
[15] = test system: Pseudomonas aeruginosa; test: Antibacterial activity against Pseudomonas aeruginosa isolate 340 after 24 hrs by CLSI microdilution method
[16] = test system: Pseudomonas aeruginosa; test: Antibacterial activity against Pseudomonas aeruginosa isolate 341 after 24 hrs by CLSI microdilution method
[17] = test system: Pseudomonas aeruginosa; test: Antibacterial activity against Pseudomonas aeruginosa isolate 348 after 24 hrs by CLSI microdilution method
[18] = test system: Pseudomonas aeruginosa; test: Antibacterial activity against Pseudomonas aeruginosa isolate 354 after 24 hrs by CLSI microdilution method
[19] = test system: Pseudomonas aeruginosa; test: Antibacterial activity against Pseudomonas aeruginosa isolate 358 after 24 hrs by CLSI microdilution method
[20] = test system: Pseudomonas aeruginosa; test: Antibacterial activity against Pseudomonas aeruginosa isolate 360 after 24 hrs by CLSI microdilution method
[21] = test system: Pseudomonas aeruginosa; test: Antibacterial activity against Pseudomonas aeruginosa isolate 366 after 24 hrs by CLSI microdilution method
[22] = test system: Pseudomonas aeruginosa; test: Antibacterial activity against Pseudomonas aeruginosa isolate 369 after 24 hrs by CLSI microdilution method
[23] = test system: Pseudomonas aeruginosa; test: Antibacterial activity against Pseudomonas aeruginosa isolate 371 after 24 hrs by CLSI microdilution method
[24] = test system: Pseudomonas aeruginosa; test: Antibacterial activity against Pseudomonas aeruginosa isolate 374 after 24 hrs by CLSI microdilution method
[25] = test system: Pseudomonas aeruginosa; test: Antibacterial activity against Pseudomonas aeruginosa isolate 379 expressing VIM2 beta-lactamase after 24 hrs by CLSI microdilution method
[26] = test system: Acinetobacter baumannii; test: Antibacterial activity against Acinetobacter baumannii isolate 883 after 24 hrs by CLSI microdilution method
[27] = test system: Acinetobacter baumannii; test: Antibacterial activity against Acinetobacter baumannii isolate 886 after 24 hrs by CLSI microdilution method
[28] = test system: Pseudomonas aeruginosa; test: Antibacterial activity against Pseudomonas aeruginosa isolate 362 after 24 hrs by CLSI microdilution method
[29] = test system: Acinetobacter baumannii; test: Antibacterial activity against Acinetobacter baumannii isolate 897 after 24 hrs by CLSI microdilution method
[30] = test system: Acinetobacter baumannii; test: Antibacterial activity against Acinetobacter baumannii isolate 898 after 24 hrs by CLSI microdilution method
[31] = test system: Acinetobacter baumannii; test: Antibacterial activity against Acinetobacter baumannii isolate 901 after 24 hrs by CLSI microdilution method
[32] = test system: Acinetobacter baumannii; test: Antibacterial activity against Acinetobacter baumannii isolate 902 after 24 hrs by CLSI microdilution method
[33] = test system: Acinetobacter baumannii; test: Antibacterial activity against Acinetobacter baumannii isolate 903 after 24 hrs by CLSI microdilution method
[34] = test system: Acinetobacter baumannii; test: Antibacterial activity against Acinetobacter baumannii isolate 906 after 24 hrs by CLSI microdilution method
[35] = test system: Acinetobacter baumannii; test: Antibacterial activity against Acinetobacter baumannii isolate 909 after 24 hrs by CLSI microdilution method
[36] = test system: Acinetobacter baumannii; test: Antibacterial activity against Acinetobacter baumannii isolate 911 after 24 hrs by CLSI microdilution method
[37] = test system: Acinetobacter baumannii; test: Antibacterial activity against Acinetobacter baumannii isolate 913 after 24 hrs by CLSI microdilution method
[38] = test system: Acinetobacter baumannii; test: Antibacterial activity against Acinetobacter baumannii isolate 914 after 24 hrs by CLSI microdilution method
[39] = test system: Acinetobacter baumannii; test: Antibacterial activity against Acinetobacter baumannii isolate 915 after 24 hrs by CLSI microdilution method
[40] = test system: Acinetobacter baumannii; test: Antibacterial activity against Acinetobacter baumannii isolate 918 after 24 hrs by CLSI microdilution method
[41] = test system: Acinetobacter baumannii; test: Antibacterial activity against Acinetobacter baumannii isolate 923 after 24 hrs by CLSI microdilution method
[42] = test system: Acinetobacter baumannii; test: Antibacterial activity against Acinetobacter baumannii isolate 924 after 24 hrs by CLSI microdilution method
[43] = test system: Acinetobacter baumannii; test: Antibacterial activity against Acinetobacter baumannii isolate 891 after 24 hrs by CLSI microdilution method; conditions: isolate 891, 24 h

COLISTIN
MIC [1]: 2 µg/mL
MIC [2]: 1 µg/mL
MIC [3]: 32 µg/mL
MIC [4]: 0.25 µg/mL
MIC [5]: 0.5 µg/mL
MIC [6]: 4 µg/mL
MIC [7]: 8 µg/mL
MIC [8]: 1 µg/mL
MIC [9]: 2 µg/mL
MIC [10]: 2 µg/mL
MIC [11]: 1 µg/mL
MIC [12]: 0.5 µg/mL
MIC [13]: 1 µg/mL
MIC [14]: 1 µg/mL
MIC [15]: 1 µg/mL
MIC [16]: 0.5 µg/mL
MIC [17]: 1 µg/mL
MIC [18]: 0.5 µg/mL
MIC [19]: 1 µg/mL
MIC [20]: 1 µg/mL
MIC [21]: 0.5 µg/mL
MIC [22]: 2 µg/mL
MIC [23]: 1 µg/mL
MIC [24]: 1 µg/mL
MIC [25]: 1 µg/mL
MIC [26]: 32 µg/mL
MIC [27]: 1 µg/mL
MIC [28]: 1 µg/mL
MIC [29]: 4 µg/mL
MIC [30]: 1 µg/mL
MIC [31]: 8 µg/mL
MIC [32]: 2 µg/mL
MIC [33]: 0.25 µg/mL
MIC [34]: 4 µg/mL
MIC [35]: 1 µg/mL
MIC [36]: 8 µg/mL
MIC [37]: 0.25 µg/mL
MIC [38]: 2 µg/mL
MIC [39]: 1 µg/mL
MIC [40]: 4 µg/mL
MIC [41]: 4 µg/mL
MIC [42]: 2 µg/mL

C[C@@H](O)[C@H]1C(=O)N2C(C(=O)O)=C(S[C@@H]3CN[C@H](C(=O)N(C)C)C3)[C@H](C)[C@H]12 [MEROPENEM]
MIC ([1]; isolate 927, 24 h): 0.12 µg/mL (≈ 0.313 µM)
MIC ([2]; isolate 928, 24 h): 2 µg/mL (≈ 5.22 µM)
MIC ([3]; isolate 929, 24 h): 0.5 µg/mL (≈ 1.3 µM)
MIC ([4]; isolate 930, 24 h): 0.25 µg/mL (≈ 0.652 µM)
MIC ([5]; isolate 932, 24 h): 256 µg/mL (≈ 668 µM)
MIC ([6]; isolate 931, 24 h): 2 µg/mL (≈ 5.22 µM)
MIC ([7]; isolate 920, 24 h): 1 µg/mL (≈ 2.61 µM)
MIC ([8]; isolate 320, 24 h): 2 µg/mL (≈ 5.22 µM)
MIC ([9]; isolate 327, 24 h): 2 µg/mL (≈ 5.22 µM)
MIC ([10]; isolate 328, 24 h): 2 µg/mL (≈ 5.22 µM)
MIC ([11]; isolate 330, 24 h): 0.5 µg/mL (≈ 1.3 µM)
MIC ([12]; isolate 332, 24 h): 4 µg/mL (≈ 10.4 µM)
MIC ([13]; isolate 337, 24 h): 1 µg/mL (≈ 2.61 µM)
MIC ([14]; isolate 338, 24 h): 1 µg/mL (≈ 2.61 µM)
MIC ([15]; isolate 340, 24 h): 1 µg/mL (≈ 2.61 µM)
MIC ([16]; isolate 341, 24 h): 0.5 µg/mL (≈ 1.3 µM)
MIC ([17]; isolate 348, 24 h): 0.25 µg/mL (≈ 0.652 µM)
MIC ([18]; isolate 354, 24 h): 0.12 µg/mL (≈ 0.313 µM)
MIC ([19]; isolate 358, 24 h): 16 µg/mL (≈ 41.7 µM)
MIC ([20]; isolate 360, 24 h): 0.25 µg/mL (≈ 0.652 µM)
MIC ([21]; isolate 366, 24 h): 0.5 µg/mL (≈ 1.3 µM)
MIC ([22]; isolate 369, 24 h): 2 µg/mL (≈ 5.22 µM)
MIC ([23]; isolate 371, 24 h): 16 µg/mL (≈ 41.7 µM)
MIC ([24]; isolate 374, 24 h): 0.5 µg/mL (≈ 1.3 µM)
MIC ([25]; isolate 379, 24 h): 256 µg/mL (≈ 668 µM)
MIC ([26]; isolate 883, 24 h): 1 µg/mL (≈ 2.61 µM)
MIC ([27]; isolate 886, 24 h): 0.5 µg/mL (≈ 1.3 µM)
MIC ([28]; isolate 362, 24 h): 0.5 µg/mL (≈ 1.3 µM)
MIC [43]: 4 µg/mL (≈ 10.4 µM)
MIC ([29]; isolate 897, 24 h): 1 µg/mL (≈ 2.61 µM)
MIC ([30]; isolate 898, 24 h): 8 µg/mL (≈ 20.9 µM)
MIC ([31]; isolate 901, 24 h): 8 µg/mL (≈ 20.9 µM)
MIC ([32]; isolate 902, 24 h): 1 µg/mL (≈ 2.61 µM)
MIC ([33]; isolate 903, 24 h): 1 µg/mL (≈ 2.61 µM)
MIC ([34]; isolate 906, 24 h): 1 µg/mL (≈ 2.61 µM)
MIC ([35]; isolate 909, 24 h): 1 µg/mL (≈ 2.61 µM)
MIC ([36]; isolate 911, 24 h): 16 µg/mL (≈ 41.7 µM)
MIC ([37]; isolate 913, 24 h): 0.25 µg/mL (≈ 0.652 µM)
MIC ([38]; isolate 914, 24 h): 0.5 µg/mL (≈ 1.3 µM)
MIC ([39]; isolate 915, 24 h): 0.5 µg/mL (≈ 1.3 µM)
MIC ([40]; isolate 918, 24 h): 0.25 µg/mL (≈ 0.652 µM)
MIC ([41]; isolate 923, 24 h): 0.5 µg/mL (≈ 1.3 µM)
MIC ([42]; isolate 924, 24 h): 0.5 µg/mL (≈ 1.3 µM)
